Earlier results on one molecule are cited in US5215744A, “Methods for the treatment of tumors” (Boehringer Ingelheim GmbH, priority 1987, dated 1993).

Molecules are shown by their SMILES.

The test system of series [1] is human promyelocytic leukemic cell line. To be noted: cited from earlier work.
In series [2] the test system is syngeneic Wilms Tumor (nephroblastoma). To be noted: rat, in vivo; cited from earlier work.
The subject of the next series is C1300 neuroblastoma. To be noted: mouse, in vivo; cited from earlier work.
For the next series, the system named is HM-Kim mammary carcinoma. Particulars: rat, in vivo; cited from earlier work.
The subject of series [3] is antimitotic effect of interferon and its natural killer cell activating activity. To be noted: with interferon; cited from earlier work.
For series [4], the system named is interferon antitumor / growth inhibitory effect. Particulars: cited from earlier work.
Another series concerns neoplastic cells. Particulars: cited from earlier work.
The subject of a further series is cAMP. To be noted: cited from earlier work.
Another series concerns PDE. Particulars: cited from earlier work.

Take `OCCN(CCO)c1nc(N2CCCCC2)c2nc(N(CCO)CCO)ncc2n1` [mopidamole, 2,6-bis-(diethanolamino)-4-piperidino-pyrimido[5,4-d]pyrimidine]: in series [1], the “reverse transformation of malignant cells” value is “promotes a reverse transformation of the malignant cells to normal”. For the same molecule, the spontaneous lung metastases result (in series [2]; with C1300 neuroblastoma; with HM-Kim mammary carcinoma) was “diminish significantly spontaneous lung metastases” each time. The “potentiation of interferon antimitotic effect and NK cell activating activity” value in [3] is “potentiates the antimitotic effect of interferon and its natural killer cell activating activity”. Also, the synergism with interferon entry in series [4] (Ambrus et al. 1983) was “no synergism was seen”. For the same molecule, the “synergism with α and γ interferon” value in series [4] (Wolf et al.) is listed as “no synergistic inhibitory effect”. The “effect on antitumor effect of leukocyte and fibroblastic interferon” value in series [4] (tissue culture) is “potentiates the antitumor effect of leukocyte and fibroblastic interferon in tissue culture”. Besides, in series [4] (with β-interferon), the “effect on growth inhibition by human fibroblastic β-interferon” value is given as “potentiates the growth inhibitory effect of human fibroblastic β-interferon”. Further, the 3H-thymidine incorporation entry in the series with neoplastic cells is given as “inhibition of 3H-thymidine incorporation into neoplastic cells”. Moreover, the mitotic rate entry with neoplastic cells is “direct inhibition of the mitotic rate”. Besides, in the series with cAMP, the cAMP levels result is recorded as “increase cAMP levels”. In the series with PDE, the “PDE induced decomposition of cAMP” value is given as “inhibition of PDE induced decomposition of cAMP”.
